# In patent US4328215A, “Method of reducing or avoiding the mutagenic activity of drugs” (The Johns Hopkins University, priority 1977, dated 1982):
# Like-named read-outs stand apart in the source and are kept apart here. Where a SMILES comes first, the peptide text is derived from it. Bridges are numbered along the chain shown (N, C = ends). [ ]: non-standard residue; d: D form. The star is where a group is joined. Ileψ(thiazoline)Cys = CC[C@H](C)[C@H](N)C1=N[C@H](C(=O)*)CS1; dOrn = NCCC[C@@H](N)C(=O)O
# What was measured:
# intestinal bacteria = test: Effect on intestinal bacterial flora of mice; format: in vivo
# Procedure: […] Homogenates of these organs were made with 10 ml nutrient broth (Difco) and serial dilutions were plated on nutrient agar plates. Obligatory anaerobic bacteria were counted in the same manner except that the organs were homogenized in thioglycolate (Difco) medium and the agar plates were incubated in anaerobic jars. The plates were counted after incubation for 24 hours at 37° C. There were no significant differences in counts when the incubation time was extended for 48 hours. Six mice were used for each time interval.
# [1] = ampicillin administered; cited from earlier work
# [2] = mice; oxamniquine alone; cited from earlier work
# [3] = monkeys; oxamniquine alone; cited from earlier work
# [4] = Mutagenic metabolite of oxamniquine in urine of mice; format: in vivo; details: mixture of erythromycin, bacitracin and succinyl sulfathiazole
# From the text: Ir also is used, though to a lesser extent, in Africa and the Mid-east for the treatment of schistosomiasis mansoni.
compound,measurement,setting,value
CC[C@H](C)[C@H](N)C1=N[C@H](C(=O)N[C@@H](CC(C)C)C(=O)N[C@H](CCC(=O)O)C(=O)N[C@H](C(=O)N[C@H]2CCCCNC(=O)[C@H](CC(N)=O)NC(=O)[C@@H](CC(=O)O)NC(=O)[C@H](Cc3cnc[nH]3)NC(=O)[C@@H](Cc3ccccc3)NC(=O)[C@H]([C@@H](C)CC)NC(=O)[C@@H](CCCN)NC2=O)[C@@H](C)CC)CS1 [Bacitracin] ({Ileψ(thiazoline)Cys}-L[dE]IK[dOrn]I[dF]H[dD]N; lactam 4-C),"Host-mediated assay, revertants per 10^8 bacteria, controls (no CGP 4540)","S. typhimurium TA 100; bacitracin alone, 220 mg/kg, mice",64(±9) revertants per 10^8 bacteria
same,"Host-mediated assay, revertants per 10^8 bacteria, controls (no CGP 4540)","S. typhimurium TA 100; bacitracin alone, 440 mg/kg, mice",71(±5) revertants per 10^8 bacteria
CC[C@H]1OC(=O)[C@H](C)[C@@H](O[C@H]2C[C@@](C)(OC)[C@@H](O)[C@H](C)O2)[C@H](C)[C@@H](O[C@@H]2O[C@H](C)C[C@H](N(C)C)[C@H]2O)[C@](C)(O)C[C@@H](C)C(=O)[C@H](C)[C@@H](O)[C@]1(C)O [Erythromycin],"Host mediated assay, revertants per 10^8 bacteria, controls (no CGP 4540)","S. typhimurium TA 100; antibiotic alone, 100 mg/kg oral, mice",65 (±4) revertants per 10^8 bacteria
same,Number of aerobes in the large intestine,"intestinal bacteria; erythromycin base 100 mg/kg single oral dose, large intestine, aerobes","little, if any, change"
same,Number of anaerobes in the large intestine,"intestinal bacteria; erythromycin base 100 mg/kg single oral dose, large intestine, anaerobes","little, if any, change"
same,Total number of aerobic bacteria in the small intestine,"intestinal bacteria; erythromycin base 100 mg/kg single oral dose, small intestine, aerobes","only a moderate reduction, of relatively short duration"
same,Anaerobic bacteria in the small intestine,"intestinal bacteria; erythromycin base 100 mg/kg single oral dose, small intestine, anaerobes",reduced to an even lesser extent than were aerobes
O=C(O)CCC(=O)Nc1ccc(S(=O)(=O)Nc2nccs2)cc1 [Succinylsulfathiazole],"Host-mediated assay, revertants per 10^8 bacteria, controls (no CGP 4540)",S. typhimurium TA 100; in vivo,62(±5) revertants per 10^8 bacteria
same,Bacterial flora of the host's intestines,"intestinal bacteria; 1 g/kg once daily for 3 successive days, oral",reduces the bacterial flora
C[N+]([O-])=NCO[C@@H]1O[C@H](CO)[C@@H](O)[C@H](O)[C@H]1O [cycasin],Formation of the aglycone after administration of ampicillin,[1],prevented
CC(C)NCC1CCc2cc(CO)c([N+](=O)[O-])cc2N1 (stereo not shown) [oxamniquine],Mutagenic metabolite in urine,[2],gives rise to the appearance of a mutagenic metabolite in the urine
same,Mutagenic metabolite in urine,[3],gives rise to the appearance of a mutagenic metabolite in the urine
same,Appearance of the mutagenic metabolite with coadministered antibacterial agents,[4],completely eliminates the appearance of the mutagenic metabolite
